Earlier results, collected in patent US20040202731A1, “Rosmarinic acid composition” (priority 2003, published 2004).

Key:
rat liver microsomes = details: concentration of 25 μg/ml
[1] = in vivo
human PMNL = details: concentrations of 10^-5 to 10^-3 M

stability (turns to camphor with oxidation) | inhibition of lipid peroxidation of rat liver microsomes (rat liver microsomes) [%] | absorption from the gastrointestinal tract and from the skin [1] | Structure (SMILES) | endotoxin-induced activation of complement and concomitant formation of prostacyclin (complement) | formation of 5-HETE from human PMNL (human PMNL) | formation of LTB4 from human PMNL (human PMNL)
highly unstable | – | – | CC1(C)C2CCC1(C)C(O)C2 (stereo not drawn) [Borneol, endo-1,7,7-trimethyl-bicyclo[2.2.1]heptan-2-ol] | – | – | –
– | 90 | well absorbed | O=C(/C=C/c1ccc(O)c(O)c1)O[C@H](Cc1ccc(O)c(O)c1)C(=O)O [Rosmarinic acid] | suppresses | inhibited | inhibited
